Source: US10421755B2, “Salts of aza-bicyclic di-aryl ethers and methods to make them or their precursors” (Novartis AG, priority 2011, dated 2019)
Values after ≈ are worked out from the molar mass of the structure shown.

Key:
[1] = Hygroscopicity (moisture gain at relative humidity); type: physicochemical; design: Hygroscopy @ 85% RH: unit not given here
[2] = molecular target: T1, human α7-nAChR (Homo sapiens, UniProt P36544); assay: functional assay (FLIPR, Fluo-4 calcium) using GH3 cells that recombinantly expressed human α7-nAChR; type: cell-based
T1 construct: expressed in transfected cells; host or cells: GH3 cells (rat pituitary line)
T1 sequence (P36544 23-502): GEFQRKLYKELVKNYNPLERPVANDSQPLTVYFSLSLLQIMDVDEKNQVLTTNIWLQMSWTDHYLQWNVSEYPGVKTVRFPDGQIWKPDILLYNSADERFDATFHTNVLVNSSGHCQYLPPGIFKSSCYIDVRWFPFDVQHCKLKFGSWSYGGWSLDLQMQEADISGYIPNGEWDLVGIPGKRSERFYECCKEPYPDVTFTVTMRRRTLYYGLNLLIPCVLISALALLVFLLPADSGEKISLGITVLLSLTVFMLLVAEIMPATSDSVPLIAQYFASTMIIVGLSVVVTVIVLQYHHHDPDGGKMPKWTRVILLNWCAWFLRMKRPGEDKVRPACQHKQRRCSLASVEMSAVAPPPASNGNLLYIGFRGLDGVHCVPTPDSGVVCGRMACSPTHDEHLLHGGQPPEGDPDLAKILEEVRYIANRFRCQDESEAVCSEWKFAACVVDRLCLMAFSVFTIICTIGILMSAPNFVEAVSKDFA
Description: Assay: To assess α7-nAChR activity, a functional assay was employed using GH3 cells that recombinantly expressed human α7-nAChR. 40000 cells per well were seeded 48 h prior to the experiment on black 96-well plates (Costar) and incubated at 37° C. in a humidified atmosphere (5% CO2/95% air). On the day of the experiment, medium was removed by flicking the plates and replaced with 0.1 ml growth medium containing 0.002 mM Fluo-4, (Molecular Probes) in the presence of 2.5 mM probenecid (Sigma). The cells were incubated at 37° C. in a humidified atmosphere (5% CO2/95% air) for 1 h. Plates were flicked to remove excess of Fluo-4, washed twice with Hepes-buffered salt solution (HBSS, in mM: NaCl 130, KCl 5.4, CaCl2 2, MgSO4 0.8, NaH2PO4 0.9, glucose 25, Hepes 20, pH 7.4; HBS) and refilled with 0.1 ml of HBS containing antagonist when appropriate. The incubation in the presence of the antagonist lasted 3-5 minutes. Plates were placed in the cell plate stage of a FLIPR device (fluorimetric imaging plate reader, Molecular Devices, Sunnyvale, Calif., USA). After recording of the baseline (laser: excitation 488 nm at 1 W, CCD camera opening of 0.4 seconds) the agonists (0.05 ml) were added to the cell plate using the FLIPR 96-tip pipettor while simultaneously recording the fluorescence. […]

[3] = Decomposition temperature; type: physicochemical; design: unit not given here; conditions: comparison table, Example 7
[4] = Aqueous solubility; type: physicochemical
[5] = Known multiple solid forms; type: physicochemical; conditions: comparison table, Example 7
[6] = test system: mice; assay: Social Recognition Test in mice; type: in vivo; conditions: oral, dose 0.3 mg/kg, familiar partner at 24 h vs time 0
Description: Assay: Social interactions between two experimental animals are influenced by their degree of familiarity: the better they know each other, the less time they spend on mutual scrutiny at each meeting. […] Memory enhancing agents (i.e. oxiracetam) facilitate learning to the extent that the previously met (familiar) partner is still remembered after 24 h, whereas in vehicle treated control animals the memory usually fades after less than 1 hour (Thor and Holloway, 1982) or after 2-3 hours.
Baseline-test: Pairs consisting of one adult and one young mouse were assigned at random to the experimental and control groups. In each pair only the adult mouse was orally treated 1 hour before the trial with either vehicle or the test compound. The duration of active contacts of the adult mouse with the young mouse was manually recorded over a period of 3 min, including the following behavioural, approach-related items: sniffing, nosing, grooming, licking, pawing and playing, anogenital exploration and orientation toward the young mouse; orientation, thereby, was defined as tip of nose of the adult mouse less than approximately 1 cm distant from the young mouse's body. […]

[7] = Oral bioavailability and brain penetration in mice; type: in vivo
Description: Assay: Compounds were orally (30 μmol/kg) administered. Male mice (30-35 g, OF1/ICstrain) were sacrificed at indicated time points after oral administration. Trunk-blood was collected in EDTA-containing tubes and the brain was removed and immediately frozen on dry ice. To 100 μl plasma 10 μl internal standard (1.0 μmol of a compound with solubility and ionization properties similar to test compounds) was added and extracted three times with 500 μl dichloromethane. The combined extracts were then dried under a stream of nitrogen and re-dissolved in 100 μl acetonitrile/water (70% acetonitrile). Brains were weighed and homogenized in water (1:5 w/v). Two 100 μl aliquots of each homogenate+10 μl of internal standard (same standard as used for the plasma samples) were extracted three times with 500 μl dichloromethane and further processed as the plasma samples. Samples were separated on Beckmann high-performance liquid chromatography equipment system with an autosampler (Gilson 233XL). A 10 min linear gradient (10-70%) of acetonitrile containing 0.5% (v/v) formic acid was used to elute the compounds from Nucleosil CC-125/2 C18 reversed phase (Machery&Nagel) column.
The limit of detection (LOD), defined as the lowest concentration of the extracted standard sample with a signal to noise ratio of ˜3.

[8] = Loss on drying / initial water content; type: physicochemical; design: Initial water content: unit not given here

For `Cc1ccc(-c2ccc(O[C@H]3CN4CCC3CC4)cn2)cc1` [Compound A, (R)-3-(6-(4-methylphenyl)-pyridin-3-yloxy)-1-aza-bicyclo[2.2.2]octane], the “hygroscopicity (in words)” value [1] was “hygroscopic”, the moisture gain ([1]; at 93% relative humidity (RH)) was 2% and the “Hygroscopy @ 85% RH” value ([1]; comparison table, Example 7) was about 2. The “α7-nAChR activity Efficacy compared to epibatidine (100%)” value ([2]; Emax relative to epibatidine response) was 75%, the EC50 ([2]; GH3 cells, human α7-nAChR, read-out: α7-nAChR activity Potency EC50) was 0.035 µM and the Decomposition temperature [3] was 224. For the same compound, the “aqueous solubility (in words)” value [4] was “low”, the solubility ([4]; aqueous medium, comparison table, Example 7) was 50 µg/mL (≈ 170 µM) and the “Known Multiple forms” value [5] was “Yes”. For the same compound, the “Reduction in time scrutinizing in % ± SEM at 24 h” value [6] was 36 ± 6%, the “Brain (pmoles/g ± SD)” value ([7]; 30 μmol/kg p.o., 0.25 hour) was 4631 ± 1717 pmol/g and the “Brain (pmoles/g ± SD)” value ([7]; 30 μmol/kg p.o., 0.5 hour) was 11430 ± 3441 pmol/g. The “Brain (pmoles/g ± SD)” value ([7]; 30 μmol/kg p.o., 1 hour) was 14948 ± 4716 pmol/g, the “Brain (pmoles/g ± SD)” value ([7]; 30 μmol/kg p.o., 4 hour) was 1272 ± 715 pmol/g and the “Brain (pmoles/g ± SD)” value ([7]; 30 μmol/kg p.o., 8 hour) was 58 ± 27 pmol/g. The “time for which brain concentration is beyond (or at least equal) to the EC50 at the α7-nAChR” value ([7]; acute oral dose of 30 μmol/kg) was “at least 4 hours”, the concentration at 0.25 h ([7]; male, OF1/IC, mouse, plasma, po, 30 μmol/kg p.o., 0.25 hour, read-out: Plasma (pmoles/ml ± SD)) was 573 ± 234 pmol/mL and the concentration at 0.5 h ([7]; male, OF1/IC, mouse, plasma, po, 30 μmol/kg p.o., 0.5 hour, read-out: Plasma (pmoles/ml ± SD)) was 559 ± 143 pmol/mL. It also gave a concentration at 1 h ([7]; male, OF1/IC, mouse, plasma, po, 30 μmol/kg p.o., 1 hour, read-out: Plasma (pmoles/ml ± SD)) of 322 ± 135 pmol/mL, a concentration at 4 h ([7]; male, OF1/IC, mouse, plasma, po, 30 μmol/kg p.o., 4 hour, read-out: Plasma (pmoles/ml ± SD)) of 20 ± 16 pmol/mL and a concentration at 8 h ([7]; male, OF1/IC, mouse, plasma, po, 30 μmol/kg p.o., 8 hour, read-out: Plasma (pmoles/ml ± SD)) of 3.4 ± 0.8 pmol/mL. For the same compound, the “Loss on drying (LOD) of a sample” value [8] was 0.1% and the Initial water content ([8]; comparison table, Example 7) was 0.1.
